These results are taken from article PMC6663863, “The inositol hexakisphosphate kinases IP6K1 and -2 regulate human cellular phosphate homeostasis, including XPR1-mediated phosphate export” (The Journal of Biological Chemistry, 2019).

The target in the assay is T1, SPX^XPR1 (recombinant His-tagged SPX domain of human XPR1) (Homo sapiens, UniProt Q9UBH6).
T1 construct: SPX domain only, N-terminal cytosolic part; residue borders not given, cloning primers encode start MKFAEHL and end PPLGAAQ-stop; His tag (modified pHisTrcA), HisTrap purified
T1 sequence (Q9UBH6 1-227): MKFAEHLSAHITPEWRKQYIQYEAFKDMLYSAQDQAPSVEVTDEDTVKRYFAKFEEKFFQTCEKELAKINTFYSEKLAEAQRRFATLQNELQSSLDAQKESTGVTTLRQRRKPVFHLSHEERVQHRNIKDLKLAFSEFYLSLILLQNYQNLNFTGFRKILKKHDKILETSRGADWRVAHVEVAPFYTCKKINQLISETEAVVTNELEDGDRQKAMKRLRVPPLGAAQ
Nature of the assay: competition with [3H]IP6, PEG precipitation. Type of assay: binding.
By IC50 is commonly meant the concentration needed to halve the response being measured. `O=P(O)(O)O[C@@H]1[C@@H](OP(=O)(O)O)[C@@H](OP(=O)(O)O)[C@@H](OP(=O)(O)OP(=O)(O)O)[C@H](OP(=O)(O)O)[C@H]1OP(=O)(O)O` [1-IP7]: the IC50 is about 8.4 µM. Turning to `O=P(O)(O)O[C@H]1[C@@H](OP(=O)(O)O)[C@H](OP(=O)(O)O)[C@@H](OP(=O)(O)OP(=O)(O)O)[C@H](OP(=O)(O)O)[C@H]1OP(=O)(O)O` [5-IP7, 5-diphosphoinositol pentakisphosphate], the IC50 is about 4.2 µM.

Consider `O=P(O)(O)O[C@@H]1[C@@H](OP(=O)(O)O)[C@H](OP(=O)(O)O)[C@H](O)[C@H](OP(=O)(O)O)[C@H]1OP(=O)(O)O` [I(1,3,4,5,6)P5], for which the half-maximal inhibitory concentration (IC50) came out at 28.1 ± 3.9 µM. Consider `O=P(O)(O)O[C@H]1[C@H](OP(=O)(O)O)[C@@H](OP(=O)(O)O)[C@H](OP(=O)(O)O)[C@@H](OP(=O)(O)O)[C@H]1OP(=O)(O)O` [IP6, inositol hexakisphosphate], for which the IC50 is about 9.8 µM.
